Test results from PMC9972953, “Thermophilic Carboxylesterases from Hydrothermal Vents of the Volcanic Island of Ischia Active on Synthetic and Biobased Polymers and Mycotoxins” (Applied and Environmental Microbiology, 2023).

Legend:
Format in all cases: biochemical, uncultured Chloroflexota bacterium
Conditions in all cases: pH 9.0, 30°C
IS12 [1] = test system: T1, IS12; assay: spectrophotometric release of p-nitrophenol, […] nm
T1 construct: N-terminal 6xHis tag (pET-46 Ek/LIC), E. coli BL21(DE3); dimer in solution

IS10 [2] = test system: T2, IS10; assay: spectrophotometric release of p-nitrophenol, […] nm
T2 construct: N-terminal 6xHis tag (pET-46 Ek/LIC), E. coli BL21(DE3); dimer in solution

IS12 [3] = test system: T1, IS12; assay: spectrophotometric release of α-naphthol, […] nm
IS10 [4] = test system: T2, IS10; assay: spectrophotometric release of α-naphthol, […] nm

| SMILES | Km (IS12 [1]) | Km (IS10 [2]) | Km (IS12 [3]) | Km (IS10 [4]) | KM (IS10 [4]) |
| --- | --- | --- | --- | --- | --- |
| CCCC(=O)Oc1ccc([N+](=O)[O-])cc1 [pNP-butyrate] | 80 ± 10 µM | 60 ± 10 µM |  |  |  |
| CCC(=O)Oc1cccc2ccccc12 [αN-propionate] |  |  | 690 ± 190 µM | 60 ± 20 µM |  |
| CC(=O)Oc1ccc([N+](=O)[O-])cc1 [pNP-acetate] | 220 ± 50 µM | 50 ± 10 µM |  |  |  |
| CCCCCC(=O)Oc1ccc([N+](=O)[O-])cc1 [pNP-hexanoate] | 90 ± 10 µM | 40 ± 10 µM |  |  |  |
| CCCC(=O)Oc1cccc2ccccc12 [αN-butyrate] |  |  |  |  | 120 ± 40 µM |
